Measured values reported in PubChem BioAssay AID679 (PCMD, 2007).
Activity calls are given as the source filed them. No rule for the calls is given here.

The compounds below were run against Coagulation factor XI (Homo sapiens) (UniProt P03951) (assay: human FXIa inhibitor potency, dose response, biochemical (AID 679)). Settings: purified human factor XIa enzymatic activity assay.
Chain of Coagulation factor XI (Homo sapiens) (P03951 19-387 limits assumed): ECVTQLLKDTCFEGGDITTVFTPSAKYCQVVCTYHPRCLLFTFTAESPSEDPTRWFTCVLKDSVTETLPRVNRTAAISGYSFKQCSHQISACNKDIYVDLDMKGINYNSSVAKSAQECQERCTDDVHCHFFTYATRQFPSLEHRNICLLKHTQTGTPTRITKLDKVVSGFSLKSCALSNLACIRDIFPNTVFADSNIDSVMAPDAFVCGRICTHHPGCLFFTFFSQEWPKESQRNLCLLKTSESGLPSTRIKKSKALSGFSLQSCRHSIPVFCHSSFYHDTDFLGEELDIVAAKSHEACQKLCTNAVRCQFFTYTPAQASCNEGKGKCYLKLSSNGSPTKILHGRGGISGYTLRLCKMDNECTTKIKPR
Chain of Coagulation factor XI (Homo sapiens) (P03951 388-625 limits assumed): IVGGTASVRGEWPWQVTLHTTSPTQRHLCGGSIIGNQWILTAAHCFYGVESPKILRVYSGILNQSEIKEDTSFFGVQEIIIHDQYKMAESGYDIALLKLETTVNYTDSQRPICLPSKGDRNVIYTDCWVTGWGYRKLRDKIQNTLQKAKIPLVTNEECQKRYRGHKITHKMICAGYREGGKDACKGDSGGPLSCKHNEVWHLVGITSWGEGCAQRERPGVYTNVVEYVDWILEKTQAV

IC50, inactive:
CC1=C(C(=O)OC(C)C)C(c2coc3ccccc3c2=O)C2=C(CCCC2=O)N1 (stereo not drawn) > 50 µM
COC(=O)c1ccc(NC(=O)CC2C(=O)N(c3ccc(C)cc3)C(=O)N2CC(C)C)cc1 (stereo not drawn) > 50 µM
N#Cc1c(N)nc2c3c(sc(=N)c2c1N)NC(=O)CC3c1ccccc1Cl (stereo not drawn) > 50 µM
